Here are results for 15 molecules from patent US20170334899A1, “AMINO-SUBSTITUTED ISOTHIAZOLES” (Bayer Pharma Aktiengesellschaft, priority 2014, published 2017).

Structures are written as SMILES. Counter-ions that a name gives are not always drawn.

For the assay, the target named is T1, human kinase Mps-1 (Homo sapiens, UniProt P33981).
T1 construct: N-terminally GST-tagged human full length recombinant Mps-1 kinase; GST (N); purchased Invitrogen, Karslruhe, Germany PV4071
T1 sequence (P33981 1-857): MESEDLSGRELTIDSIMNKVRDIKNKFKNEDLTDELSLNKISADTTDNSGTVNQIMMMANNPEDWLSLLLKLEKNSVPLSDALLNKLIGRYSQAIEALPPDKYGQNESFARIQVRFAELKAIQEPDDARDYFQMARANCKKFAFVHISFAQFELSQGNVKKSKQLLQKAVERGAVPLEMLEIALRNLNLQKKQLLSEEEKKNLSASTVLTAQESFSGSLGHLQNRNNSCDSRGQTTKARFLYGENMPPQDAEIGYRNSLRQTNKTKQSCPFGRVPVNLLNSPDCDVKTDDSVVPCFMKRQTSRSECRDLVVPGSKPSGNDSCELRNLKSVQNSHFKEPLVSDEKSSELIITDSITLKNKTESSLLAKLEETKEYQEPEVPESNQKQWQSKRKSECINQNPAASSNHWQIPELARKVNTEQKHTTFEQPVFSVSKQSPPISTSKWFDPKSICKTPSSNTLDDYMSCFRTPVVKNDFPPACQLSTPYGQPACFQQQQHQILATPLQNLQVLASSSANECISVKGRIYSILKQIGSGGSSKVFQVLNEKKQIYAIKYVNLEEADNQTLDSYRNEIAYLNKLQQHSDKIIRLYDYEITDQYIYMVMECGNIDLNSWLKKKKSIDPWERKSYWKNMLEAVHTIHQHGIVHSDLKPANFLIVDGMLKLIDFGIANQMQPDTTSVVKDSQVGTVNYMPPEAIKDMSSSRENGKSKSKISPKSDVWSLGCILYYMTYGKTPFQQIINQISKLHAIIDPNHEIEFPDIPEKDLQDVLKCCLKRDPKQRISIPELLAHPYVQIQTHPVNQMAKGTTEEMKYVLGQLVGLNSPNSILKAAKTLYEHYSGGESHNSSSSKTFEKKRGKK
Put plainly: Mps-1 kinase assay (TR-FRET). To be noted: Mps-1 TR-FRET kinase assay; avg; read-out: Mps1 avg (IC50 [mol/l]). The format is biochemical. Summed up: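 GST-tagged full-length recombinant human Mps-1 (~0.5 nM) pre-incubated 15 min with compound, then reacted 60 min at 22 °C with 10 μM ATP and 1 μM biotinylated peptide in Hepes pH 7.7 buffer. EDTA-stopped; TR-FRET (Eu anti-phospho-Ser/Thr to SA-XLent) 665/620 nm ratio normalised to no-inhibitor and no-enzyme controls.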
For orientation: Time-resolved FRET reads energy transfer from a long-lived donor to a nearby acceptor.
As for `Cc1nsc(Nc2cnc(C(F)(F)F)cn2)c1C(=O)Nc1ccc(OC2CCN(C(C)C)CC2)nc1` [Example 160, N-{6-[(1-isopropylpiperidin-4-yl)oxy]pyridin-3-yl}-3-methyl-5-{[5-(trifluoromethyl)pyrazin-2-yl]amino}-1,2-thiazole-4-carboxamide], the IC50 was above 20 µM.

Consider `Cc1nsc(Nc2cnc(C(F)(F)F)cn2)c1C(=O)Nc1ccc(OC2CCN(CCF)CC2)c(F)c1` [Example 162, N-(3-fluoro-4-{[1-(2-fluoroethyl)piperidin-4-yl]oxy}phenyl)-3-methyl-5-{[5-(trifluoromethyl)pyrazin-2-yl]amino}-1,2-thiazole-4-carboxamide], for which the IC50 is above 20 µM.

`Cc1nsc(Nc2cnc(C(F)(F)F)cn2)c1C(=O)Nc1ccc(OC2CCN(CC(F)(F)F)CC2)c(F)c1` [Example 163, N-(3-fluoro-4-{[1-(2,2,2-trifluoroethyl)piperidin-4-yl]oxy}phenyl)-3-methyl-5-{[5-(trifluoromethyl)pyrazin-2-yl]amino}-1,2-thiazole-4-carboxamide]: the IC50 was above 20 µM.

Turning to `Cc1nsc(Nc2cnc(C(F)(F)F)cn2)c1C(=O)Nc1ccc(OC2CCN(CC(F)F)CC2)c(F)c1` [Example 164, N-(4-{[1-(2,2-difluoroethyl)piperidin-4-yl]oxy}-3-fluorophenyl)-3-methyl-5-{[5-(trifluoromethyl)pyrazin-2-yl]amino}-1,2-thiazole-4-carboxamide], the IC50 is above 20 µM.

For the molecule `Cc1nsc(Nc2cnc(C(F)(F)F)cn2)c1C(=O)Nc1ccc(C(=O)NC2CCN(CC(F)(F)F)CC2)cc1` [Example 165, 3-methyl-N-(4-{[1-(2,2,2-trifluoroethyl)piperidin-4-yl]carbamoyl}phenyl)-5-{[5-(trifluoromethyl)pyrazin-2-yl]amino}-1,2-thiazole-4-carboxamide], the IC50 is above 20 µM.

As to `Cc1nsc(Nc2cncc(C(F)(F)F)n2)c1C(=O)Nc1ccc(OCC2CCCN(C(=O)OC(C)(C)C)C2)nc1` (stereo not drawn) [Example 166, tert-butyl 3-{[(5-{[(3-methyl-5-{[6-(trifluoromethyl)pyrazin-2-yl]amino}-1,2-thiazol-4-yl)carbonyl]amino}pyridin-2-yl)oxy]methyl}piperidine-1-carboxylate], the IC50 was above 20 µM.

On to `Cc1nsc(Nc2cncc(C(F)(F)F)n2)c1C(=O)Nc1ccc(C(=O)NC2CCN(CC(F)(F)F)CC2)cc1` [Example 167, 3-methyl-N-(4-{[1-(2,2,2-trifluoroethyl)piperidin-4-yl]carbamoyl}phenyl)-5-{[6-(trifluoromethyl)pyrazin-2-yl]amino}-1,2-thiazole-4-carboxamide], for which the IC50 was above 20 µM.

`Cc1nsc(Nc2cncc(C(F)(F)F)n2)c1C(=O)Nc1ccc(F)c(OC2CCN(C(=O)OC(C)(C)C)CC2)c1` [Example 168, tert-butyl 4-(2-fluoro-5-{[(3-methyl-5-{[6-(trifluoromethyl)pyrazin-2-yl]amino}-1,2-thiazol-4-yl)carbonyl]amino}phenoxy)piperidine-1-carboxylate]: the IC50 is above 20 µM.

As to `Cc1nsc(Nc2cnc3ccccc3n2)c1C(=O)Nc1ccc(N2CCOCC2)nc1` [Example 169, 3-methyl-N-[6-(morpholin-4-yl)pyridin-3-yl]-5-(quinoxalin-2-ylamino)-1,2-thiazole-4-carboxamide], the IC50 was above 20 µM.

Take `Cc1nsc(Nc2ccc(C#N)cn2)c1C(=O)Nc1ccc(N[C@@H](C)C(=O)OC(C)(C)C)nc1` [Example 170, tert-butyl N-{5-[({5-[(5-cyanopyridin-2-yl)amino]-3-methyl-1,2-thiazol-4-yl}carbonyl)amino]pyridin-2-yl}alaninate]: the IC50 is above 20 µM.

On to `Cc1nsc(Nc2ccc(C#N)cn2)c1C(=O)Nc1ccc(NC2CCCN(C(=O)OC(C)(C)C)C2)nc1` (stereo not drawn) [Example 171, tert-butyt 3-({5-[({5-[(5-cyanopyridin-2-yl)amino]-3-methyl-1,2-thiazol-4-yl}carbonyl)amino]pyridin-2-yl}amino)piperidine-1-carboxylate], for which the IC50 is above 20 µM.

On to `Cc1nsc(Nc2cnc3ccccc3n2)c1C(=O)Nc1ccc(NC2CC2)nc1` [Example 172, N-[6-(cyclopropylamino)pyridin-3-yl]-3-methyl-5-(quinoxalin-2-ylamino)-1,2-thiazole-4-carboxamide], for which the IC50 is above 20 µM.

`COc1ccc(NC(=O)c2c(C)nsc2Nc2ccc(C#N)cn2)c(N2CCOCC2)n1` [Example 173, 5-[(5-cyanopyridin-2-yl)amino]-N-[6-methoxy-2-(morpholin-4-yl)pyridin-3-yl]-3-methyl-1,2-thiazole-4-carboxamide]: the IC50 was above 20 µM.

`Cc1nsc(Nc2cnc(C(F)(F)F)cn2)c1C(=O)Nc1ccc(F)c(OCC2CCCN(CC(F)F)C2)c1` (stereo not drawn) [Example 335, N-(3-{[1-(2,2-difluoroethyl)piperidin-3-yl]methoxy}-4-fluorophenyl)-3-methyl-5-{[5-(trifluoromethyl)pyrazin-2-yl]amino}-1,2-thiazole-4-carboxamide]: the IC50 was at least 20 µM.

Turning to `Cc1nsc(Nc2cnc(C(F)(F)F)cn2)c1C(=O)Nc1ccc(OC2CCN(CCC(F)(F)F)CC2)nc1` [Example 426, 3-Methyl-5-{[5-(trifluoromethyl)pyrazin-2-yl]amino}-N-(6-{[1-(3,3,3-trifluoro-propyl)piperidin-4-yl]oxy}pyridin-3-yl)-1,2-thiazole-4-carboxamide, Salt with Hydrochloric Acid], the IC50 was at least 20 µM.
